# Experimental data taken from patent US20260216182A1, “PYRIDAZINE NLRP3 INHIBITOR COMPOUND, PHARMACEUTICAL COMPOSITION, AND PREPARATION METHOD THEREFOR AND USE THEREOF” (CHANGCHUN GENESCIENCE PHARMACEUTICAL CO., LTD., priority 2022, published 2026).
# Test system: IL-1β
# Experiment: MSU-induced rat air pouch model, IL-1β in exudate
# Assay type: in vivo, SD rats
# Details: FIG. 2
# Protocol: Test Example 4 MSU-Induced Rat Air Pouch Model Test
# Male SD rats were used in this experiment. After an adaptation period, a dorsal air pouch model was established. On the first, fourth and seventh days of the molding, 20 ml of sterile air was injected subcutaneously into the back of the rat with an injection needle to maintain the inflation of the air pouch. On the eighth day, different doses of the compound or vehicle control were administered by oral gavage. 25 mg of sodium urate suspension was injected into the dorsal air pouch, and 5 h later, the air pouch exudate was collected. The exudate was centrifuged at 1500 rpm for 20 min, and the supernatant was collected and the IL-Iβ production was detected by ELISA (R&D, Ra1 IL-1β kit).
structure (smiles),measurement,setting,value
"CC#Cc1ccc2c(-c3ccc(Cl)cc3O)nnc(NC[C@H](O)CO)c2c1 [Compound 062, (S)-3-((4-(4-chloro-2-hydroxyphenyl)-7-(prop-1-yn-1-yl)phthalazin-1-yl)amino) propan-1,2-diol]",effect on IL-1β compared with colchicine and tofacitinib,,better than that of colchicine and tofacitinib
same,production of IL-1β in the air pouch,"oral gavage, exudate 5 h after MSU",significantly inhibited the production of IL-1β in the air pouch
